Test results published in a melting point compilation (Tetko et al.; mined from patent text by program, amines drawn as free bases though some values may be those of a salt).

Work on `CC(C)(C)OC(=O)[C@H]1CCCN1S(=O)(=O)c1ccc2c(Br)cnc(Cl)c2c1` yielded a melting point of 128 to 130 °C.
`CCOC(=O)c1cc(OC)ccc1Nc1ccc(O)cc1` showed a melting point of 134 to 136 °C.
For `Cc1ncc(CNC(=O)c2nc3n(c(=O)c2O)CCOC3(C)C)s1`, the melting point was 245 °C.
Work on `C(=C\c1ccc2c(c1)COC(N[C@@H]1CCc3ccccc31)=N2)/c1ccccc1` yielded a melting point of 162 °C.
In the case of `COc1cc(NC(=O)c2ccc(Cl)cc2)c(C(N)=O)cc1OC`, the melting point is reported as 120 to 122 °C.
Compound `Cc1cc(Oc2cccc(C(=O)O)n2)n(C)n1` has a melting point of 182 °C.
Work on `CN(C)Cc1ccc(-c2cc3ncc(C#N)c(Cl)c3s2)cc1` yielded a melting point of 166 to 168 °C.
For `Cc1cc(-c2nc3ccc(CN4CCOCC4)cc3c(=O)[nH]2)ccn1`, the melting point was 267 to 268 °C.
`CCC#CCCOc1cc(C=O)ccc1OC` gave a melting point of 86.5 to 87.5 °C.
`Cc1ccc(N2C(=S)SCC2(C)O)nc1` (centres undefined) showed a melting point of 108 °C.
`CC(C)(C)[C@H]1OC(=O)[C@H](c2cccc(Cl)c2)O1` showed a melting point of 40 to 42 °C.
For `COc1c(N2CCC(N)C(C)(C)C2)c(F)c(N)c2c(=O)c(C(=O)O)cn(C3CC3)c12` (centres undefined), the melting point was 205 °C.
`NS(=O)(=O)c1ccc(NN=C2C(=O)Nc3ccc(C(=O)NCCn4ccnc4)cc32)cc1` gave a melting point of over 230 °C.
For `COc1ccc(-c2ccc(NC(=O)OC(C)(C)C)c([N+](=O)[O-])c2)cc1`, the melting point was 107 to 109 °C.
Work on `COC(=O)c1sc(OC)c(Cl)c1O` yielded a melting point of 109 to 111 °C.
`CC(C)(C(=O)OCC(=O)c1ccccc1)n1c(=O)[nH]c2cc3ccccc3cc2c1=O` gave a melting point of 184 to 185 °C.
In the case of `CCCc1c(C(C)C)nc(C(C)C)c(C(C)O)c1-c1ccc(F)cc1` (centres undefined), the melting point is reported as 103 to 104 °C.
With `O=C1NC(=O)C2(N1)C(=O)N(Cc1ccc(Cl)c(Cl)c1)c1ccccc12` (centres undefined) the melting point was 269 to 271 °C.
Work on `COc1cc2c(cc1OC)C(C)CC(N)C(=O)N2` (centres undefined) yielded a melting point of 103 °C.
`Cc1ccc(-n2nc(C)cc2-c2ccnc(Cl)c2)cc1` showed a melting point of 100 °C.
For `CCCOC(=O)c1ccc(C(=O)NNC(=O)c2ccc(C(=O)OCCC)cc2)cc1`, the melting point was 173 to 175 °C.
In the case of `O=C(O)CCCOc1ccc(CCNC(=O)C2Cc3ccccc3N2S(=O)(=O)c2ccc(-c3cccc(C(F)(F)F)c3)cc2)cc1` (centres undefined), the melting point is reported as 70 °C.
With `COc1ccc(C2OC(=O)N3CC(=O)CCC23)cc1OC` (centres undefined) the melting point was 180 °C.
With `COC(=O)c1c([N+](=O)[O-])cccc1S(=O)(=O)N(CCO)CCO` the melting point was 92 to 93 °C.
`Cc1ccc2c(c1)CC(=O)c1cc(F)ccc1S2` gave a melting point of 103 to 104 °C.
`Nc1nc2[nH]c(CCC#Cc3ccsc3C(=O)N[C@@H](CCC(=O)O)C(=O)O)cc2c(=O)[nH]1` gave a melting point of 177 to 178 °C.
In the case of `COC(=O)C(Cc1c[nH]c2ccccc12)NC(=O)c1ccc2c(c1)OCO2` (centres undefined), the melting point is reported as 123 to 124 °C.
`COc1c2c(c(OC)c(OC)c1OC)CC(CCCCCCCCOc1ccc(Cl)cc1)C2` gave a melting point of 38 to 42 °C.
With `CSCC(=O)Nc1cccc(C(F)(F)F)c1` the melting point was 75 to 77 °C.
With `CSc1ccc2c(c1)C(=O)OC2=O` the melting point was 157 to 160 °C.
Compound `CCOC(=O)C1CCNC(=O)C1=NCCc1ccccc1` (centres undefined) has a melting point of 99 to 100 °C.
`CC(=O)SCC(Cc1ccccc1)C(=O)Nc1ccc(N(C)C)c(C(=O)O)c1` (centres undefined) showed a melting point of 168 to 169 °C.
In the case of `COc1ccc2c(=O)c(C(N)=O)cn(C)c2c1`, the melting point is reported as 304 to 306 °C.
`O=C1C(O)=C(c2ccc3ccccc3c2)C(=O)C(O)=C1c1ccc2ccccc2c1` gave a melting point of 328 to 329 °C.
With `Cc1cc(OCc2ccccc2)cc(OCc2cccc(OCc3ccc4ccccc4n3)c2)c1C(=O)O` the melting point was 146 to 149 °C.
`C#Cc1ccnc(-c2ccc(-c3ccccc3C#C)c([N+](=O)[O-])c2)c1` showed a melting point of 144 to 146 °C.
`Cc1cccc(C(=O)c2[nH]c3ccc(Cl)cc3c2CC(=O)O)n1` showed a melting point of 225 to 226 °C.
With `Cc1ncccc1CC(=NC#N)NC1CCc2cc(F)ccc21` (centres undefined) the melting point was 148 to 149 °C.
Compound `O=C(O)Cc1cc(C(=O)c2cccc(Cl)c2)ccc1O` has a melting point of 186 °C.
For `COc1ccccc1CNc1ccc2cc(Nc3nccc(C)n3)ccc2n1`, the melting point was 125 °C.
Work on `Cn1ncc2c(c1=O)SCCNC2C(=O)c1ccccc1` (centres undefined) yielded a melting point of 210 °C.
`O=c1[nH]c2ccccc2c2nc(-c3ccccc3)cn12` showed a melting point of 278 to 280 °C.
Work on `Cc1cc2cc(CN3CCCCC3)cnc2cc1NC(=O)c1ccc(-c2ccc(F)cc2)cc1` yielded a melting point of 185 to 188 °C.
`COc1ccc(-c2ccc(O)cc2C=O)cc1Cl` gave a melting point of 168 to 170 °C.
Compound `C#CC1=Cc2cc(Cl)ccc2Sc2ccc(SC)cc21` has a melting point of 100 to 103 °C.
Compound `Clc1ncc(CN2CC3(COc4cc5c(cc43)OCO5)c3ccccc32)s1` (centres undefined) has a melting point of 195 to 198 °C.
For `COc1nc(C)cnc1NS(=O)(=O)c1cnccc1-c1ccc(CC(C)C)cc1`, the melting point was 232 to 233 °C.
Work on `CSCC(C)(C)NC(=O)c1c(NC(=O)c2cc(C(F)(F)F)nn2-c2ncccc2Cl)ccc2cn[nH]c12` yielded a melting point of 100 to 105 °C.
Work on `Cc1cc(-c2ccc(O)cc2)cc2ccc(=O)[nH]c12` yielded a melting point of 270 to 274 °C.
In the case of `COC(=O)c1ccc(OCCNC(=O)C2Cc3ccccc3N2S(=O)(=O)c2ccc(-c3ccc(F)cc3)cc2)cc1` (centres undefined), the melting point is reported as 70 to 72 °C.
With `CCOC(=O)c1c(CCCn2ccnc2)nc2cc(OC)c(OC)cc2c1-c1ccc(OC)c(OC)c1` the melting point was 164 to 165 °C.
Compound `Cc1cc2c(cc1C)[C@@H](O)[C@H](CN1CCC3(CC1)C(=O)NCN3c1ccccc1)CC2` (relative stereo) has a melting point of 232 to 233 °C.
Work on `Cc1c(CC(=O)O)c(=O)oc2cc(C3OC(CO)C(O)C(O)C3O)ccc12` (centres undefined) yielded a melting point of 186 to 188 °C.
`CN(C)C=C(C#N)C(=O)c1cc(F)c(Cl)cc1Cl` showed a melting point of 138 to 139 °C.
With `CCCCOc1cc(/C=C/C(=O)NS(=O)(=O)CCC(C)C)n(Cc2ccc(Cl)cc2Cl)n1` the melting point was 119 to 120 °C.
`Cc1cccc(NC(=O)NC2CN(C(=O)C(C)(C)C)c3ccccc3N(CC(C)C)C2=O)c1` (centres undefined) showed a melting point of 152 °C.
In the case of `COc1cccc(C(=O)C=C(SC)SC)c1`, the melting point is reported as 119 to 121 °C.
`N#Cc1ccc(-c2ccc(OCCN(O)C=O)cc2)cc1` gave a melting point of 142 to 145 °C.
Work on `CCOc1ccc(-n2cccc2-c2ccc(S(N)(=O)=O)cc2)cc1` yielded a melting point of 126 to 128 °C.
With `CN(C)C=Nc1[nH]nc(Nc2cccc(Cl)c2)c1C#N` the melting point was over 260 °C.
`Oc1ccc(-c2noc3ccc(O)cc23)cc1` gave a melting point of 266 to 268 °C.
Compound `O=C(O)Cc1ccc(C(=O)c2ccc(Cl)cc2)n1Cc1ccccc1` has a melting point of 162 to 163 °C.
Work on `COc1ccc(C(C)=O)cc1S(N)(=O)=O` yielded a melting point of 200 to 201 °C.
Compound `O=S(=O)(Cl)c1cccc2[nH]nnc12` has a melting point of 173 to 175 °C.
In the case of `CCCCCCCCCCCCn1nnc(C(C)(C)S(=O)(=O)Nc2c(C(C)C)cccc2C(C)C)n1`, the melting point is reported as 63 to 65 °C.
`CCCc1c(OCCCCCOc2ccc(OCCCC(=O)O)cc2CCC(=O)O)ccc2c1OCCC2=O` showed a melting point of 119 to 124 °C.
For `Nc1nc(-c2cc(Cl)ccc2Cl)nc(N2CCN(C(c3ccccc3)c3ccccc3)CC2)n1`, the melting point was 217 to 218 °C.
Compound `COc1ccc(C2=NC(NC(=O)CCc3ccc(Cl)cc3Cl)C(=O)N(C)c3ccccc32)cc1` (centres undefined) has a melting point of 188 to 189 °C.
Work on `N#Cc1cccc(CN2C(=O)C3(COc4cc5c(cc43)OCCO5)c3ccccc32)c1` (centres undefined) yielded a melting point of 94 to 96 °C.
With `COc1ccc(-c2c(CO)c(CO)c3n2-c2ccc(OC)cc2C3)cc1` the melting point was 186 to 187 °C.
`CON(C)C(=O)C(C)NC(=O)OC(C)(C)C` (centres undefined) gave a melting point of 150 to 151 °C.
`Cc1nc(-c2ccc(F)cc2)n(-c2ccc(S(C)(=O)=O)cc2)n1` showed a melting point of 143 to 144 °C.
With `CCOCC(C)(C)COc1ccc(-c2ccc3c(c2)C=C(C(=O)Nc2ccc(CN(C)C4CCOCC4)cc2)CCS3(=O)=O)cc1` the melting point was 209 to 210 °C.
With `O=C1c2ccccc2C(=O)N1OS(=O)(=O)c1ccc(Cl)cc1` the melting point was 178 to 180 °C.
`CCCSC1=NSc2cc(C)cnc2N1Cc1ccc(-c2ccccc2C(=O)O)cc1` showed a melting point of 237 to 239 °C.
Work on `CN1CCc2c(Cl)csc2C(c2ccccc2)C1` (centres undefined) yielded a melting point of 67 °C.
Compound `CS(=O)(=O)c1cccc(C(Cc2ccc(F)cc2)C(=O)Nc2nc3ccccc3o2)c1` (centres undefined) has a melting point of 99 to 100 °C.
Compound `S=C(NN=Cc1cccc(-c2ccccc2Cl)n1)NN1CCCC1` has a melting point of 187 to 188 °C.
Compound `CCCCCCCCCCCCC1N(C)c2cccc3cccc(c23)N1C` has a melting point of 30 to 32 °C.
With `CN(C)c1ccc2c(c1)C(=O)CC(c1cccc(OCc3ccccc3)c1)=N2` the melting point was 307 to 308 °C.
With `CCCSc1sc(C(N)=O)c2c1-c1c(cnn1C)CC2` the melting point was 112 to 113 °C.
With `Cc1ccc2c(c1C#N)c(Sc1ccc(Cl)cc1)c(C)n2CC(=O)O` the melting point was 237 to 238 °C.
In the case of `COc1cccc(NC=C2C(=O)OC(C)(C)OC2=O)c1`, the melting point is reported as 108 °C.
Work on `CCOC(=O)c1cc(OCc2ccccc2)c2c(Cl)cc(Cl)cc2n1` yielded a melting point of 146 to 147 °C.
In the case of `COCc1c(-c2ccccc2)ncc2[nH]c3ccc(OCc4ccccc4)cc3c12`, the melting point is reported as 189 to 191 °C.
Compound `O=C(O)CCc1nn(-c2ccc(F)cc2)c2c1CCCC2` has a melting point of 128 to 129 °C.
Compound `CCOc1nc(N)nc(C(F)(F)F)n1` has a melting point of 124 to 125 °C.
In the case of `CC(C)(C)c1ccc(C(=O)NN=Cc2c(O)ccc3ccccc23)cc1`, the melting point is reported as 259 to 261 °C.
Work on `CCOC(=O)c1cc(Br)cc2c(=O)c(OCCCN3CCN(Cc4ccc5ccccc5n4)CC3)c(-c3ccccc3)oc12` yielded a melting point of 125 to 126 °C.
`COc1cc2ccc([C@](O)(c3c[nH]cn3)C(C)C)cc2cc1OC` gave a melting point of 156 to 157 °C.
Work on `CCOC(=O)CSc1nc(Cl)cc(NCc2ccc(F)cc2)n1` yielded a melting point of 70 to 75 °C.
`O=C(O)c1cccc(OCCNC(=O)C2Cc3ccccc3N2S(=O)(=O)c2ccc(-c3cccc(C(F)(F)F)c3)cc2)c1` (centres undefined) showed a melting point of 85 to 92 °C.
In the case of `O=C(NC(=O)c1c(F)cccc1F)Nc1cc(Br)c(Br)cc1C(F)(F)F`, the melting point is reported as 203 °C.
`CSc1ncc2c(n1)C(C)CNN(C)C2=O` (centres undefined) gave a melting point of 153 to 155 °C.
Work on `Cc1onc(-c2ccc(Cl)cc2)c1CCl` yielded a melting point of 91 to 92 °C.
`CCCC1(Br)Cc2c3c(c(C)c(C)c2C1=O)OC(C(=O)O)C3` (centres undefined) showed a melting point of 78 °C.
In the case of `NS(=O)(=O)c1ccc(C2=C(c3ccc(-c4cscn4)cc3)C(=O)OC2)cc1F`, the melting point is reported as 194 °C.
In the case of `CCC(CC)c1ccc(Cl)c2nc(Nc3c(C)noc3C)n(CCCCO)c12`, the melting point is reported as 150 to 155 °C.
With `CC(C)(C)c1ccc(C2(O)CN(C(c3ccccc3)c3ccccc3)C2)cc1` the melting point was 168 to 169 °C.
